Data taken from US9738604B2, “Ethynylbenzene derivatives” (Duke University, priority 2010, dated 2017).
Values after ≈ are worked out from the molar mass of the structure shown.

Assays:
Assay type in all cases: cell-based
P. aeruginosa (PAO1) = assay: MIC, P. aeruginosa; details: for MIC P. aeruginosa (PAO1): 22 hours at 37° C., MTT; for MIC: Pseudomonas aeruginosa, PAO1, 22 h, read-out: MIC P. aeruginosa (PAO1)
E. coli W3110RL = assay: microbe, parasite or virus in culture; details: for MIC E. coli W3110RL: E. coli with lpxC of R. leguminosarum, 22 hours at 37° C., MTT; for MIC: Escherichia coli, W3110RL, 22 h, read-out: MIC E. coli W3110RL
E. coli W3110 = assay: microbe, parasite or virus in culture; details: for MIC: Escherichia coli, W3110, 22 h, read-out: MIC E. coli W3110
E. coli W3110PA = assay: microbe, parasite or virus in culture; details: for MIC E. coli W3110PA: E. coli with lpxC of P. aeruginosa, 22 hours at 37° C., MTT; for MIC: Escherichia coli, W3110PA, 22 h, read-out: MIC E. coli W3110PA

Row | Structure (SMILES) | MIC P. aeruginosa (PAO1) (P. aeruginosa (PAO1)) | MIC E. coli W3110RL (E. coli W3110RL) | MIC E. coli W3110 (E. coli W3110) | MIC E. coli W3110PA (E. coli W3110PA) | MIC (P. aeruginosa (PAO1)) [µg/mL] | MIC (E. coli W3110RL) [µg/mL] | MIC (E. coli W3110) [µg/mL] | MIC (E. coli W3110PA) [µg/mL]
1 | CSCC[C@H](NC(=O)c1ccc(C#CC#Cc2ccc(N)cc2)cc1)C(=O)NO [CPD-028, (2S)-2-({4′-(4′-(4′-aminophenyl)buta-1′,3′-diyn-1-yl]phenyl}formamido)-N-hydroxy-4-(methylsulfanyl)butanamide] | E (>100 μg/mL) | E (>100 μg/mL) | A (key: A: <1 μg/mL; B: 1-10 μg/mL; C: 11-50 μg/mL; D: 51-100 μg/mL; E: >100 μg/mL) | E (>100 μg/mL) | – | – | – | –
2 | Nc1ccc(C#CC#Cc2ccc(C(=O)N[C@@H](Cc3c[nH]c4ccccc34)C(=O)NO)cc2)cc1 [CPD-029, (2S)-2-({4′-[4′-(4′-aminophenyl)buta-1′,3′-diyn-1′-yl]phenyl}formamido)-N-hydroxy-3-(1′H-indol-3′-yl)propanamide] | E (>100 μg/mL) | E (>100 μg/mL) | B (key: A: <1 μg/mL; B: 1-10 μg/mL; C: 11-50 μg/mL; D: 51-100 μg/mL; E: >100 μg/mL) | E (>100 μg/mL) | – | – | – | –
3 | Nc1ccc(C#CC#Cc2ccc(C(=O)N3CCC[C@H]3C(=O)NO)cc2)cc1 [CPD-031, (2S)-1-({4′-[4′-(4′-aminophenyl)buta-1′,3′-diyn-1-yl]phenyl}carbonyl)-N-hydroxypyrrolidine-2-carboxamide] | E (>100 μg/mL) | E (>100 μg/mL) | C (key: A: <1 μg/mL; B: 1-10 μg/mL; C: 11-50 μg/mL; D: 51-100 μg/mL; E: >100 μg/mL) | E (>100 μg/mL) | – | – | – | –
4 | NCCCC[C@H](NC(=O)c1ccc(C#CC#Cc2ccc(N)cc2)cc1)C(=O)NO [CPD-032, (2S)-6-amino-2-({4′-[4′-(4′-aminophenyl)buta-1′,3′-diyn-1-yl]phenyl}formamido)-N-hydroxyhexanamide] | C (11-50 μg/mL) | D (51-100 μg/mL) | C (key: A: <1 μg/mL; B: 1-10 μg/mL; C: 11-50 μg/mL; D: 51-100 μg/mL; E: >100 μg/mL) | C (11-50 μg/mL) | – | – | – | –
5 | Nc1ccc(C#CC#Cc2ccc(C(=O)N[C@@H](Cc3ccc(O)cc3)C(=O)NO)cc2)cc1 [CPD-033, (2S)-2-({4′-[4′-(4′-aminophenyl)buta-1′,3′-diyn-1′-yl]phenyl}formamido)-N-hydroxy-3′-(4′-hydroxyphenyl)propanamide] | C (11-50 μg/mL) | E (>100 μg/mL) | B (key: A: <1 μg/mL; B: 1-10 μg/mL; C: 11-50 μg/mL; D: 51-100 μg/mL; E: >100 μg/mL) | B (1-10 μg/mL) | – | – | – | –
6 | N=C(N)NCCC[C@H](NC(=O)c1ccc(C#CC#Cc2ccc(N)cc2)cc1)C(=O)NO [CPD-034, (2S)-2-({4′-[4′-(4′-aminophenyl)buta-1′,3′-diyn-1-yl]phenyl}formamido)-5′-carbamimidamido-N-hydroxypentanamide] | C (11-50 μg/mL) | D (51-100 μg/mL) | C (key: A: <1 μg/mL; B: 1-10 μg/mL; C: 11-50 μg/mL; D: 51-100 μg/mL; E: >100 μg/mL) | D (51-100 μg/mL) | – | – | – | –
7 | C[C@@H](O)[C@H](NC(=O)c1ccc(C#CC#Cc2ccc(N)nc2)cc1)C(=O)NO [CPD-035, (2S,3R)-2-{4′-[[(2″-amino)pyridin-5″-yl]buta-1′,3′-diynyl]benzamido}-1,3-dihydroxybutanamide] | A (<1 μg/mL) | C (11-50 μg/mL) | A (key: A: <1 μg/mL; B: 1-10 μg/mL; C: 11-50 μg/mL; D: 51-100 μg/mL; E: >100 μg/mL) | B (1-10 μg/mL) | – | – | – | –
8 | C[C@@H](O)[C@H](NC(=O)c1ccc(C#CC#Cc2cnc(N)nc2)cc1)C(=O)NO [CPD-036, (2S,3R)-2-{4′-[[(2″-amino)pyrimidin-5″-yl]buta-1′,3′-diynyl]benzamido}-1,3-dihydroxybutanamide] | A (<1 μg/mL) | E (>100 μg/mL) | B (key: A: <1 μg/mL; B: 1-10 μg/mL; C: 11-50 μg/mL; D: 51-100 μg/mL; E: >100 μg/mL) | B (1-10 μg/mL) | – | – | – | –
9 | C[C@@H](O)[C@H](NC(=O)c1ccc(C#CC#Cc2cccnc2)cc1)C(=O)NO [CPD-038, (2S,3R)-2-{4′-[(pyridin-3″-yl]buta-1′,3′-diynyl]benzamido}-1,3-dihydroxybutanamide] | A (<1 μg/mL) | D (51-100 μg/mL) | A (key: A: <1 μg/mL; B: 1-10 μg/mL; C: 11-50 μg/mL; D: 51-100 μg/mL; E: >100 μg/mL) | B (1-10 μg/mL) | – | – | – | –
10 | C[C@@H](O)[C@H](NS(=O)(=O)c1ccc(C#CC#Cc2ccc(N)cc2)cc1)C(=O)NO [CPD-039, (2S,3R)-2-({4′-[4′-(4′-aminophenyl)buta-1′,3′-diyn-1′-yl]benzene}sulfonamido)-N,3-dihydroxybutanamide] | D (51-100 μg/mL) | E (>100 μg/mL) | B (key: A: <1 μg/mL; B: 1-10 μg/mL; C: 11-50 μg/mL; D: 51-100 μg/mL; E: >100 μg/mL) | D (51-100 μg/mL) | – | – | – | –
11 | C[C@@H](O)[C@H](NC(=O)c1ccc(C#CC#Cc2ccc(N)cc2)cn1)C(=O)NO [CPD-041, (2S,3R)-2-({5-[4-(4-aminophenyl)buta-1,3-diyn-1-yl]pyridin-2-yl}formamido)-N,3-dihydroxybutanamide] | – | – | – | – | 1 to 10 (≈ 2.64 to 26.4 µM) | 11 to 50 (≈ 29.1 to 132 µM) | < 1 | 1 to 10 (≈ 2.64 to 26.4 µM)
12 | CC(N)C(C(=O)NO)c1c[nH]c2cc(C#CC#Cc3ccc(N)cc3)ccc12 (stereo not drawn) [CPD-042, 3-amino-2-{6′-[4′-(4′-aminophenyl)buta-1′,3′-diyn-1′-yl]-1′H-indol-3′-yl}-N-hydroxybutanamide] | – | – | – | – | 51 to 100 (≈ 137 to 269 µM) | 51 to 100 (≈ 137 to 269 µM) | 1 to 10 (≈ 2.69 to 26.9 µM) | 51 to 100 (≈ 137 to 269 µM)
13 | Nc1ccc(C#CC#Cc2ccc(C(=O)NC3CCN(O)C3=O)cc2)cc1 (stereo not drawn) [CPD-043, 4-((4-aminophenyl)buta-1,3-diynyl)-N-(1-hydroxy-2-oxopyrrolidin-3-yl)benzamide] | – | – | – | – | 51 to 100 (≈ 142 to 278 µM) | 51 to 100 (≈ 142 to 278 µM) | < 1 | 51 to 100 (≈ 142 to 278 µM)
14 | Nc1ccc(C#CC#Cc2ccc(C(=O)N[C@@H]3CCN(O)C3=O)cc2)cc1 [CPD-044, (R)-4-((4-aminophenyl)buta-1,3-diynyl)-N-(1-hydroxy-2-oxopyrrolidin-3-yl)benzamide] | – | – | – | – | 51 to 100 (≈ 142 to 278 µM) | 51 to 100 (≈ 142 to 278 µM) | < 1 | 51 to 100 (≈ 142 to 278 µM)
15 | C[C@@H](O)[C@H](NC(=O)c1ccc(C#CC#Cc2ccc(N)cc2)cc1)C(=O)NN [CPD-045, 4-((4-aminophenyl)buta-1,3-diynyl)-N-((2S,3R)-1-hydrazinyl-3-hydroxy-1-oxobutan-2-yl)benzamide] | – | – | – | – | 51 to 100 (≈ 135 to 266 µM) | 51 to 100 (≈ 135 to 266 µM) | 1 to 10 (≈ 2.66 to 26.6 µM) | 51 to 100 (≈ 135 to 266 µM)
16 | C[C@@H](O)[C@H](NC(=O)c1ccc(C#CC#Cc2ccc(N)cc2)cc1)C(=O)O [CPD-046, (2S,3R)-2-(4-((4-aminophenyl)buta-1,3-diynyl)benzamido)-3-hydroxybutanoic acid] | – | – | – | – | 51 to 100 (≈ 141 to 276 µM) | 51 to 100 (≈ 141 to 276 µM) | 1 to 10 (≈ 2.76 to 27.6 µM) | 51 to 100 (≈ 141 to 276 µM)
17 | C[C@@H](O)[C@H](NC(=O)c1ccc(C#CC#Cc2ccc(N)cc2)cc1)C(N)=O [CPD-047, N-((2S,3R)-1-amino-3-hydroxy-1-oxobutan-2-yl)-4-((4-aminophenyl)buta-1,3-diynyl)benzamide] | – | – | – | – | 51 to 100 (≈ 141 to 277 µM) | 51 to 100 (≈ 141 to 277 µM) | 1 to 10 (≈ 2.77 to 27.7 µM) | 51 to 100 (≈ 141 to 277 µM)
18 | CC(C)[C@@]1(NC(=O)c2ccc(C#CC#Cc3ccc(N)cc3)cc2)CCN(O)C1=O [CPD-048, (S)-4-((4-aminophenyl)buta-1,3-diynyl)-N-(1-hydroxy-3-isopropyl-2-oxopyrrolidin-3-yl)benzamide] | – | – | – | – | 51 to 100 (≈ 127 to 249 µM) | 51 to 100 (≈ 127 to 249 µM) | 1 to 10 (≈ 2.49 to 24.9 µM) | 51 to 100 (≈ 127 to 249 µM)
19 | Nc1ccc(C#CC#Cc2ccc(C(=O)N[C@H](C(=O)NO)[C@H](O)c3ccc(O)cc3)cc2)cc1 [CPD-049, 4-((4-aminophenyl)buta-1,3-diynyl)-N-((1R,2S)-1-hydroxy-3-(hydroxyamino)-1-(4-hydroxyphenyl)-3-oxopropan-2-yl)benzamide] | – | – | – | – | 11 to 50 (≈ 24.2 to 110 µM) | 51 to 100 (≈ 112 to 220 µM) | 1 to 10 (≈ 2.2 to 22 µM) | 51 to 100 (≈ 112 to 220 µM)
20 | Nc1ccc(C#CC#Cc2ccc(C(=O)N[C@H](C(=O)NO)[C@@H](O)c3ccc(O)cc3)cc2)cc1 [CPD-050, 4-((4-aminophenyl)buta-1,3-diynyl)-N-((1S,2S)-1-hydroxy-3-(hydroxyamino)-1-(4-hydroxyphenyl)-3-oxopropan-2-yl)benzamide] | – | – | – | – | 1 to 10 (≈ 2.2 to 22 µM) | 11 to 50 (≈ 24.2 to 110 µM) | < 1 | < 1
21 | C[C@@](O)(c1ccc(O)cc1)C(NC(=O)c1ccc(C#CC#Cc2ccc(N)cc2)cc1)C(=O)NO (stereo partly drawn) [CPD-052, 4-((4-aminophenyl)buta-1,3-diynyl)-N-((3R)-3-hydroxy-1-(hydroxyamino)-3-(4-hydroxyphenyl)-1-oxobutan-2-yl)benzamide] | – | – | – | – | 1 to 10 (≈ 2.13 to 21.3 µM) | 51 to 100 (≈ 109 to 213 µM) | < 1 | 1 to 10 (≈ 2.13 to 21.3 µM)
22 | C[C@H](O)[C@H](NC(=O)c1ccc(C#CC#Cc2ccc(N)cc2)cc1)C(=O)NO [CPD-053, (2S,3S)-2-{4′-[(4″-aminophenyl)buta-1′,3′-diynyl]benzamido}-1,3-dihydroxybutanamide] | – | – | – | – | < 1 | 51 to 100 (≈ 135 to 265 µM) | < 1 | < 1
23 | C[C@@H](O)[C@@H](NC(=O)c1ccc(C#CC#Cc2ccc(N)cc2)cc1)C(=O)NO [CPD-054, (2R,3R)-2-{4′-[(4″-aminophenyl)buta-1′,3′-diynyl]benzamido}-1,3-dihydroxybutanamide] | – | – | – | – | 11 to 50 (≈ 29.1 to 132 µM) | 51 to 100 (≈ 135 to 265 µM) | 1 to 10 (≈ 2.65 to 26.5 µM) | 11 to 50 (≈ 29.1 to 132 µM)
24 | C[C@H](O)[C@@H](NC(=O)c1ccc(C#CC#Cc2ccc(N)cc2)cc1)C(=O)NO [CPD-055, (2R,3S)-2-{4′-[(4″-aminophenyl)buta-1′,3′-diynyl]benzamido}-1,3-dihydroxybutanamide] | – | – | – | – | 11 to 50 (≈ 29.1 to 132 µM) | 51 to 100 (≈ 135 to 265 µM) | 1 to 10 (≈ 2.65 to 26.5 µM) | 11 to 50 (≈ 29.1 to 132 µM)
